2 compounds from PMC4877007, “A Minimal Threshold of c-di-GMP Is Essential for Fruiting Body Formation and Sporulation in Myxococcus xanthus” (PLoS Genetics, 2016) can be followed below.

For assay [1], the target named is T1, DmxB (Myxococcus xanthus, UniProt Q1D603, R210A).
T1 construct: gene MXAN_3735; full-length, DmxB-His6 from pET24b(+) (pDJS30), made in E. coli Rosetta 2(DE3), Ni-NTA; N-terminal receiver, C-terminal GGDEF
The experiment in a line: TLC of [α-32P]-GTP products (diguanylate cyclase assay). The format is biochemical. To be noted: labelled compound; I-site mutant; 1 mM GTP, 10 μM protein, 10 mM MgCl2, 300 mM NaCl, pH 8.0, 30°C.

Assay [2] addresses T2, EpsI/Nla24 (Myxococcus xanthus, UniProt Q1CVM8).
T2 construct: calculated 50 kDa; receiver, AAA+ and HTH domains
The experiment in a line: SPR (Biacore T200), steady-state affinity fit. The settings on record: labelled compound: biotinylated c-di-GMP immobilised on streptavidin chip, protein as analyte; paper states KD as that of c-di-GMP; 10 mM HEPES, 150 mM NaCl, 2 mM MgCl2, pH 6.8, 25°C. The class given is binding.

T1 sequence (Q1D603 entry or part of it R210A): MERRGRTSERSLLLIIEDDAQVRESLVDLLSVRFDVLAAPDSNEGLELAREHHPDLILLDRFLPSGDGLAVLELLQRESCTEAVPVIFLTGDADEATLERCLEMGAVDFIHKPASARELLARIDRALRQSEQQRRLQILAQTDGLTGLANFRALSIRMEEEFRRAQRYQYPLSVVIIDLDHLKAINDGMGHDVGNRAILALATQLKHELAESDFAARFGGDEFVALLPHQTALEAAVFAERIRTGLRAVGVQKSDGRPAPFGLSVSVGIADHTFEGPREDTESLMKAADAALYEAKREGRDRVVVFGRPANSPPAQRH
T2 sequence (Q1CVM8 entry or part of it): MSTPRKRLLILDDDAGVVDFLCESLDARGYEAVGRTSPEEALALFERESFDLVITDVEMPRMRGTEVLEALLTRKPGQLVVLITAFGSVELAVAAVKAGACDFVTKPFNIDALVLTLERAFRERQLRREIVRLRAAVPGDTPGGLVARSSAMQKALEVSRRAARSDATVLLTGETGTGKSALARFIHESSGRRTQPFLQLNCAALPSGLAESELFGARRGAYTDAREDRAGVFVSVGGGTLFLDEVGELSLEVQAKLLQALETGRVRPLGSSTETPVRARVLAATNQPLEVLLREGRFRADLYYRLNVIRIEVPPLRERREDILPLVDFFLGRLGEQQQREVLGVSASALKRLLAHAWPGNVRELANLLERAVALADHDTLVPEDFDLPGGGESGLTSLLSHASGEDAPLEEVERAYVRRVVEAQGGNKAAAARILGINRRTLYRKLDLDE

For the compound `Nc1nc2c(ncn2[C@@H]2O[C@H](COP(=O)(O)OP(=O)(O)OP(=O)(O)O)[C@@H](O)[C@H]2O)c(=O)[nH]1` [GTP], in assay [1], the “TLC of [α-32P]-GTP products (diguanylate cyclase assay)” value is listed as “the I-site mutant had slightly increased DGC activity in vitro in comparison to the WT”. The compound biotinylated c-di-GMP yielded a Kd in assay [2] of 530 ± 60 nM.

One may read the Kd as the concentration at which binding is half-saturated. A high value points to a looser complex.
